Test results published in PubChem BioAssay (NCI).
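Dose response: 5 concentrations. Exposure: 48 h. Format: 96-well plates. Endpoint: linear interpolation; highest concentration if not reached. GI50 is the concentration that inhibits growth by half. TGI: concentration producing complete growth inhibition.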

Legend:
Assay in all cases: DTP human tumour cell line panel, 48 h
786-0 renal = tested on: 786-0 renal
A498 renal = tested on: A498 renal
A549 NSCLC = tested on: A549 NSCLC
ACHN renal = tested on: ACHN renal
BT-549 breast = tested on: BT-549 breast
CAKI-1 renal = tested on: CAKI-1 renal
CCRF-CEM leukemia = tested on: CCRF-CEM leukemia
COLO 205 colon = tested on: COLO 205 colon
DU-145 prostate = tested on: DU-145 prostate
EKVX NSCLC = tested on: EKVX NSCLC
HCC-2998 colon = tested on: HCC-2998 colon
HCT-116 colon = tested on: HCT-116 colon
HCT-15 colon = tested on: HCT-15 colon
HL-60(TB) leukemia = tested on: HL-60(TB) leukemia
HOP-62 NSCLC = tested on: HOP-62 NSCLC
HOP-92 NSCLC = tested on: HOP-92 NSCLC
HS 578T breast = tested on: HS 578T breast
HT29 colon = tested on: HT29 colon
IGROV1 ovarian = tested on: IGROV1 ovarian
K-562 leukemia = tested on: K-562 leukemia
KM12 colon = tested on: KM12 colon
LOX IMVI melanoma = tested on: LOX IMVI melanoma
M14 melanoma = tested on: M14 melanoma
MALME-3M melanoma = tested on: MALME-3M melanoma
MCF7 breast = tested on: MCF7 breast
MDA-MB-231 breast = tested on: MDA-MB-231 breast
MDA-MB-435 = tested on: MDA-MB-435
MOLT-4 leukemia = tested on: MOLT-4 leukemia
NCI-H226 lung = tested on: NCI-H226 lung
NCI-H460 lung = tested on: NCI-H460 lung
NCI-H522 lung = tested on: NCI-H522 lung
NCI/ADR-RES ovarian = tested on: NCI/ADR-RES ovarian
OVCAR-3 ovarian = tested on: OVCAR-3 ovarian
OVCAR-4 ovarian = tested on: OVCAR-4 ovarian
OVCAR-5 ovarian = tested on: OVCAR-5 ovarian
OVCAR-8 ovarian = tested on: OVCAR-8 ovarian
PC-3 prostate = tested on: PC-3 prostate
RPMI-8226 leukemia = tested on: RPMI-8226 leukemia
RXF 393 renal = tested on: RXF 393 renal
SF-268 CNS = tested on: SF-268 CNS
SF-295 CNS = tested on: SF-295 CNS
SF-539 CNS = tested on: SF-539 CNS
SK-MEL-2 melanoma = tested on: SK-MEL-2 melanoma
SK-MEL-28 melanoma = tested on: SK-MEL-28 melanoma
SK-MEL-5 melanoma = tested on: SK-MEL-5 melanoma
SK-OV-3 ovarian = tested on: SK-OV-3 ovarian
SN12C renal = tested on: SN12C renal
SNB-19 CNS = tested on: SNB-19 CNS
SNB-75 CNS = tested on: SNB-75 CNS
SR leukemia = tested on: SR leukemia
SW-620 colon = tested on: SW-620 colon
T-47D breast = tested on: T-47D breast
TK-10 renal = tested on: TK-10 renal
U251 CNS = tested on: U251 CNS
UACC-257 melanoma = tested on: UACC-257 melanoma
UACC-62 melanoma = tested on: UACC-62 melanoma
UO-31 renal = tested on: UO-31 renal

SMILES: COc1cc(OC)c(S(N)(=O)=O)cc1C(=O)/C=C/c1ccc(C)cc1
- GI50 (786-0 renal): 3.85 µM
- TGI (786-0 renal): 22.3 µM
- GI50 (A498 renal): 16.2 µM
- TGI (A498 renal): 30.7 µM
- GI50 (A549 NSCLC): 2.75 µM
- TGI (A549 NSCLC): 10.3 µM
- GI50 (ACHN renal): 3.86 µM
- TGI (ACHN renal): 13.9 µM
- GI50 (BT-549 breast): 2.18 µM
- TGI (BT-549 breast): 6.79 µM
- GI50 (CAKI-1 renal): 2.42 µM
- TGI (CAKI-1 renal): 12.4 µM
- GI50 (CCRF-CEM leukemia): 3.99 µM
- TGI (CCRF-CEM leukemia): > 100 µM
- GI50 (COLO 205 colon): 3.33 µM
- TGI (COLO 205 colon): 9.26 µM
- GI50 (DU-145 prostate): 4.23 µM
- TGI (DU-145 prostate): 18.9 µM
- GI50 (EKVX NSCLC): 4.33 µM
- TGI (EKVX NSCLC): 16.4 µM
- GI50 (HCC-2998 colon): 2.39 µM
- TGI (HCC-2998 colon): 5.47 µM
- GI50 (HCT-116 colon): 3.06 µM
- TGI (HCT-116 colon): 12.2 µM
- GI50 (HCT-15 colon): 2.56 µM
- TGI (HCT-15 colon): 12.9 µM
- GI50 (HL-60(TB) leukemia): 2.52 µM
- TGI (HL-60(TB) leukemia): 15.8 µM
- GI50 (HOP-62 NSCLC): 2.9 µM
- TGI (HOP-62 NSCLC): 7.72 µM
- GI50 (HOP-92 NSCLC): 2.3 µM
- TGI (HOP-92 NSCLC): 7.45 µM
- GI50 (HS 578T breast): 3.5 µM
- TGI (HS 578T breast): 35.8 µM
- GI50 (HT29 colon): 3.5 µM
- TGI (HT29 colon): 10.1 µM
- GI50 (IGROV1 ovarian): 3.56 µM
- TGI (IGROV1 ovarian): 14.4 µM
- GI50 (K-562 leukemia): 2.43 µM
- TGI (K-562 leukemia): > 100 µM
- GI50 (KM12 colon): 3.13 µM
- TGI (KM12 colon): 14.5 µM
- GI50 (LOX IMVI melanoma): 0.543 µM
- TGI (LOX IMVI melanoma): 5.01 µM
- GI50 (M14 melanoma): 3.25 µM
- TGI (M14 melanoma): 13 µM
- GI50 (MALME-3M melanoma): 8.55 µM
- TGI (MALME-3M melanoma): 23.6 µM
- GI50 (MCF7 breast): 2.48 µM
- TGI (MCF7 breast): 12.4 µM
- GI50 (MDA-MB-231 breast): 3.41 µM
- TGI (MDA-MB-231 breast): 12.5 µM
- GI50 (MDA-MB-435): 2.27 µM
- TGI (MDA-MB-435): 6.72 µM
- GI50 (MOLT-4 leukemia): 3.07 µM
- TGI (MOLT-4 leukemia): 29.6 µM
- GI50 (NCI-H226 lung): 4.14 µM
- TGI (NCI-H226 lung): 19.3 µM
- GI50 (NCI-H460 lung): 2.24 µM
- TGI (NCI-H460 lung): 5.65 µM
- GI50 (NCI-H522 lung): 2.48 µM
- TGI (NCI-H522 lung): 8.03 µM
- GI50 (NCI/ADR-RES ovarian): 5.25 µM
- TGI (NCI/ADR-RES ovarian): 49.2 µM
- GI50 (OVCAR-3 ovarian): 3.05 µM
- TGI (OVCAR-3 ovarian): 12.6 µM
- GI50 (OVCAR-4 ovarian): 3.66 µM
- TGI (OVCAR-4 ovarian): 16.3 µM
- GI50 (OVCAR-5 ovarian): 2.57 µM
- TGI (OVCAR-5 ovarian): 7.12 µM
- GI50 (OVCAR-8 ovarian): 2.17 µM
- TGI (OVCAR-8 ovarian): 5.19 µM
- GI50 (PC-3 prostate): 3.42 µM
- TGI (PC-3 prostate): 14.4 µM
- GI50 (RPMI-8226 leukemia): 3.2 µM
- TGI (RPMI-8226 leukemia): 24.7 µM
- GI50 (RXF 393 renal): 2.24 µM
- TGI (RXF 393 renal): 6.06 µM
- GI50 (SF-268 CNS): 3.2 µM
- TGI (SF-268 CNS): 19.8 µM
- GI50 (SF-295 CNS): 3.89 µM
- TGI (SF-295 CNS): 11.5 µM
- GI50 (SF-539 CNS): 2.17 µM
- TGI (SF-539 CNS): 5.05 µM
- GI50 (SK-MEL-2 melanoma): 11.5 µM
- TGI (SK-MEL-2 melanoma): 25.3 µM
- GI50 (SK-MEL-28 melanoma): 4.09 µM
- TGI (SK-MEL-28 melanoma): 15.3 µM
- GI50 (SK-MEL-5 melanoma): 7.81 µM
- TGI (SK-MEL-5 melanoma): 21.1 µM
- GI50 (SK-OV-3 ovarian): 3.18 µM
- TGI (SK-OV-3 ovarian): 9.43 µM
- GI50 (SN12C renal): 2.95 µM
- TGI (SN12C renal): 11.4 µM
- GI50 (SNB-19 CNS): 3.65 µM
- TGI (SNB-19 CNS): 15.1 µM
- GI50 (SNB-75 CNS): 1.84 µM
- TGI (SNB-75 CNS): 5.09 µM
- GI50 (SR leukemia): 2.26 µM
- TGI (SR leukemia): 12.9 µM
- GI50 (SW-620 colon): 3.43 µM
- TGI (SW-620 colon): 12.6 µM
- GI50 (T-47D breast): 2.32 µM
- TGI (T-47D breast): 7.55 µM
- GI50 (TK-10 renal): 3.41 µM
- TGI (TK-10 renal): 12.3 µM
- GI50 (U251 CNS): 2.66 µM
- TGI (U251 CNS): 10.1 µM
- GI50 (UACC-257 melanoma): 3.86 µM
- TGI (UACC-257 melanoma): 15.9 µM
- GI50 (UACC-62 melanoma): 3.63 µM
- TGI (UACC-62 melanoma): 15.2 µM
- GI50 (UO-31 renal): 3.46 µM
- TGI (UO-31 renal): 14.5 µM
